Experimental data published in patent publication US5688789A, “PCP receptor ligands and the use thereof” (State of Oregon, acting by and through the Oregon State …, priority 1995, dated 1997).

Assays:
PCP receptor [1] = test: PCP receptor affinity of IDDC analogs vs. [3H]MK-801 in rat brain membrane (Example 10, Table 2); settings: read-out: PCP Receptor Affinity IC50 in Rat Brain Membrane vs. [3H]MK-801, MEAN
PCP receptor [2] = test: PCP receptor binding against 3H-MK-801 (Example 5, Table 1); settings: for IC50: vs. 3H-MK-801, ± sem (n)
Experimental: The PCP receptor binding properties of various compounds of the invention against ^3 H-5-methyl-10,11-dihydro-5H-dibenzo[a,d]cycloheptene-5,10-imine (^3 H-MK-801) were determined.

[3] = test system: NMDA receptor-ion channel complex; test: Whole-cell patch clamp: block of NMDA-induced currents on cultured rat hippocampal neurons (Example 6); assay type: cell-based; settings: for inward current on serial applications with NMDA: 10 uM compound with NMDA; for recovery from inhibition of NMDA current: after 10 uM compound
Experimental: In the electrophysiological studies the compounds are evaluated with respect to their ability to block the ion channel of the NMDA receptor channel complex and thereby inhibit Ca^2+ and Na^+ ion flow into the nerve cell. Initially, the ion channels are opened by activating the NMDA receptor. Ion flow is determined by measuring the passage of electrical current, i.e., a use-dependent decrease in electrical current indicates blocking of the ion channel due to binding of a ligand at a site within the channel.
Hippocampal neurons were obtained from the CA1 region of the hippocampus from 1-3 day-old-newborn rats (Long-Evans). Small blocks of tissue ([…]1mm^3) were incubated in papain (20 units ml^-1; Worthington-Cooper) for 30 minutes. The tissue was dissociated into a single cell suspension by trituration with a fire-polished Pasteur pipette in complete growth medium (Earle's MEM, 20 mM glucose, 50 units/ml penicillin/streptomycin, 5% heat-inactivated fetal calf serum, Serum Extender from Collaborative Research) containing 2.5 mg/ml bovine serum albumin and 2.5 mg/ml trypsin inhibitor (Sigma). The cells were plated onto glass coverslips coated with collagen/poly-D-lysine. Cultures were fed every 3 days by replacing haft the volume of medium. Arabinosylcytosine (5×10^-6 M) was added to the cultures for 1 or 2 days during the first week after plating to suppress the proliferation of non-neuronal cells.
All electrophysiology experiments were performed with the whole-cell mode of patch clamp recording [Hamill, O. D., Marty, A., Neher, E., Sakman, B., and Sigworth, F. J., Pflugers Arch. 391:85-100 (1981)] from neurons grown for 1-3 weeks in culture. Agonists and agonist/antagonist combinations were applied by a U-tube mol (Fenwick et al, J. Physiol. 331:577-597 (1982)) to neurons in whole-cell experiments. The external solution contained (in mM) NaCl 140, KCl 3.5, CaCl2 1, glucose 5, picrotoxinin 0.02, tetrodotoxin (TTX) 5×10^-4, and N-2-hydroxyethyl-piperazine-N'-2-ethanesulfonic acid (HEPES) 10. The pH of this solution was adjusted to 7.4 with NaOH. The internal (patch electrode) solution contained (mM) Cs-methanesulfonate 120, CsCl 10, ethyleneglycol-bis-(β-aminoethylether)-N,N,N',N'-tetraacetic acid (EGTA) 10, HEPES 10 (pH adjusted to 7.0 with CsOH). Membrane current was filtered at 4000 Hz (-3dB; 8-pole Bessel) and recorded on magnetic tape for later analysis. Experiments were performed at room temperature (20°-25° C.). [Sources of chemicals: N-methyl-D-aspartate, Cambridge Research Biochemicals; pirotoxinin, Sigma Chemical Company; salts for recording solutions, Aldrich (Gold Label) or Alfa (Puratronic). [^3 H]Kainate and [3H]CPP and [^3 H]AMPA were purchased from Dupont/NEN (Boston, Mass.)].
Repetitive applications (every 30 s) to the same cell produced currents which varied less than 5% over a period of at least 30 minutes.

rat hippocampal cells = test: In vitro neurotoxicity assay: protection against glutamate, Trypan Blue survival count (Example 7); assay type: cell-based; settings: 10 uM, glutamate 0-1000 uM, 1 uM glycine
Experimental: In the cytotoxicity studies, cultured mammalian neurons expressing EAA receptors are exposed in vitro to glutamate and the particular compound under investigation. The survival percentage of cells indicates the ability of the compound to protect against glutamate-induced neuronal death.
Dissociated rat hippocampal cultures were prepared using a modification of the method of Huettner and Baughman [Huettner, J. E. and Baugham, R. W., J. Neurosci. 6:3044-3060 (1986)]. The cortices were removed from 1-3 day post-natal rats (Sprague-Dawley) that had been anesthetized with chloral hydrate, and the hippocampi were dissected out and placed in Cl^- free dissociation medium supplemented with 1 mM kynurenic acid and 10 mM MgSO4 (Choi, D. W., J. Neurosci. 7:369-379 (1987)). The hippocampi were washed in the dissociation medium, then incubated for 2×20 minutes at 37° C. in dissociation medium containing 10 units/ml of Papain (Worthington). After the enzyme treatment, the tissue was incubated for three 5-minute periods at 37° C. with 10 mg/ml trypsin inhibitor (Sigma type II-0).
The cells were dissociated by trituration in growth medium and plated as 0.15 ml droplets of cell suspension onto the center of 35 mm Primaria (Falcon) dishes that had been stamped with a labeled 26×26 grid of approximately 0.64 cm^2 total area using a Mecanex BB form (WPI, New Haven, Conn.) and coated with poly-D-lysine and laminin (Collaborative Research). The cell density was between 2.5 and 4.0×10^5 cells per dish. The growth medium was Eagles minimum essential media (MEM, Earle's salts) supplemented with 5% fetal bovine serum (CCL), 5% defined supplemented calf serum (HyClone), 50 mM glucose, 50 units/ml penicillin/streptomycin and MITO+serum extender (Collaborative Research). The cells were maintained at 37° C. in a humidified 4.5% CO2 atmosphere. […]
Before treatment, sister cultures were examined under phase-contrast microscopy to ensure that the cultures were of a similar density. […] The cultures were washed three times and the surviving cells counted in the grid area using phase contrast microscopy. […]

Row | SMILES | IC50 (PCP receptor [1]) [nM] | also measured
1 | Clc1ccc2c(c1)C1CNC(C2)c2ccccc21 (racemic) [(±)-3-Cl-IDDC] | 64.2 | 
2 | Fc1ccc2c(c1)C1CNC(C2)c2ccccc21 (single isomer, unassigned; (+)) [(+)-3-Fluoro-IDDC, (+)-3-fluoro-5-(iminomethano)-10,11-dihydro-5H-dibenzo-[a,d]cycloheptene] | 18 | 
3 | COc1ccc2c(c1)C1CNC2Cc2ccc(Cl)cc21 (racemic) [(±)-3-Cl-7-OMe-IDDC, 3-chloro-7-methoxy-5-(iminomethano)-10,11-dihydro-5H-dibenzo[a,d]cycloheptene] | 113 | 
4 | COc1ccc2c(c1)C1CNC2Cc2ccc(Br)cc21 (racemic) [(±)-3-Br-7-OMe-IDDC, 3-bromo-7-methoxy-5-(iminomethano)-10,11-dihydro-5H-dibenzo[a,d]cycloheptene] | 114 | 
5 | CN1CC2c3cc(Br)ccc3CC1c1ccccc12 (racemic) [(±)-3-Br--N--Me-IDDC, 3-bromo-N-methyl-5-(iminomethano)-10,11-dihydro-5H-dibenzo[a,d]cycloheptene] | 1040 | 
6 | Fc1ccc2c(c1)C1CNC(C2)c2ccccc21 (racemic) [(±)-3-F-IDDC] | 29.4 | 
7 | COc1ccc2c(c1)C1CN(C)C2Cc2ccc(Br)cc21 (racemic) [(±)-3-Br-7-OMe--N--Me-IDDC, 3-Bromo-7-methoxy-N-methyl-5-(iminomethano)-10,11-dihydro-5H-dibenzo[a,d]cycloheptene] | 643 | 
8 | CN1C[C@H]2c3ccccc3C[C@@H]1c1ccccc12 [(+)-N--Me-IDDC, N-methyl-10,5-(iminomethano)-10,11-dihydro-5H-dibenzo[a,d]cycloheptene] | 65.4 | affinity for the PCP receptor compared with MK-801 (PCP receptor [2]; relative to MK-801): lower affinity than MK-801 for the PCP receptor; IC50 (PCP receptor [2]): 800 ± 9 nM; inward current on serial applications with NMDA [3]: Serial applications evoked progressively smaller currents; rate of recovery from blockade compared with MK-801 ([3]; 10 uM, relative to MK-801): somewhat more rapid than the rate of recovery of responses following MK-801; inhibition of NMDA current ([3]; 10 uM, 50 uM NMDA + 1 uM glycine, -60 mV): inhibited the NMDA current in a use-dependent and voltage-dependent manner; recovery from inhibition of NMDA current [3]: reversed only with prolonged or repeated application of NMDA
9 | COc1ccc2c(c1)C1CNC2Cc2ccccc21 (racemic) [(±)-7-OMe-IDDC, 7-Methoxy-5-(iminomethano)-10,11-dihydro-5H-dibenzo-[a,d]cycloheptene] | 332 | 
10 | CC12CNC(Cc3ccccc31)c1ccccc12 (racemic) [(±)-5-Me-IDDC, 5-methyl-10,5-(iminomethano)-10,11-dihydro-5H-dibenzo[a,d]cycloheptene] | 119 | IC50 (PCP receptor [2]): 125 nM
11 | COc1ccc2c(c1)C1CNC(C2)c2ccccc21 (racemic) [(±)-3-OMe-IDDC, 3-methoxy-5-(iminomethano)-10,11-dihydro-5H-dibenzo-[a,d]cycloheptane] | 168 | 
12 | CN[C@H](CC(=O)O)C(=O)O [NMDA, N-methyl-D-aspartate, reference compound] |  | inward whole-cell current ([3]; 50 uM NMDA + 1 uM glycine, three second applications, -60 mV): 100-1000 pA
13 | Ic1ccc2c(c1)C1CNC(C2)c2ccccc21 (racemic) [(±)-3-Iodo-IDDC, 3-iodo-5-(iminomethano)-10,11-dihydro-5H-dibenzo-[a,d]cycloheptene] | 160 | 
14 | Clc1ccc2c(c1)C1CNC(C2)c2ccccc21 (single isomer, unassigned; (-)) [(-)-3-Chloro-IDDC, (-)-3-Chloro-5-(iminomethano)-10,11-dihydro-5H-dibenzo-[a,d]cycloheptene] | 110 | 
15 | Brc1ccc2c(c1)C1CNC(C2)c2ccccc21 (racemic) [(±)-3-Br-IDDC, 3-bromo-5-(iminomethano)-10,11-dihydro-5H-dibenzo-[a,d]cycloheptene] | 41 | 
16 | Clc1ccc2c(c1)C1CNC2Cc2ccccc21 (racemic) [(±)-7-Cl-IDDC, 7-Chloro-5-(iminomethano)-10,11-dihydro-5H-dibenzo-[a,d]cycloheptene] | 690 | 
17 | CC12NC(Cc3ccccc31)c1ccccc12 (single isomer, unassigned) [MK-801, 5-methyl-10,11-dihydro-5H-dibenzo[a,d]cycloheptene-5,10-imine, reference compound] |  | inward current on serial applications with NMDA [3]: the inward current became progressively smaller with serial applications; recovery from inhibition of NMDA current [3]: required repeated applications of NMDA alone and was speeded by holding the membrane potential at positive voltages
18 | CN1CC2c3ccccc3CC1c1ccccc12 (single isomer, unassigned) [N-methyl IDDC, N-methyl-10,5-(iminomethano)-10,11-dihydro-5H-dibenzo[a,d]cycloheptene] |  | cell survival compared to control (rat hippocampal cells): enhanced cell survival when compared to control values
19 | Clc1ccc2c(c1)C1CNC(C2)c2ccccc21 (single isomer, unassigned; (+)) [(+)-3-Chloro-IDDC, (+) 3-Chloro-5-(iminomethano)-10,11-dihydro-5H-dibenzo-[a,d]cycloheptene] | 14 | 
20 | Nc1ccc2c(c1)C1CNC(C2)c2ccccc21 (racemic) [(±)-3-NH2-IDDC, 3-amino-5-(iminomethano)-10,11-dihydro-5H-dibenzo[a,d]cycloheptene] | 486 | 
